# What was measured:
# [1] = test system: odor-causing biological growth (mold, mildew) in the machine; test: early odor-control trials in the TROMM laundry washer, before the standardized procedure; details: TROMM WM2688WM washer; Example 1: one ounce per load, 2.5 cu ft laundry, warm water
# Source text: A TROMM Model # WM2688WM laundry washer made by LG Electronics Inc. was purchased. After a few months the odor problem was discovered. […] Applicant started to investigate why a new, expensive washer had this kind of problem. […] These are organic based materials. They provide a growth medium for mold, mildew and other biological growth. The odor is generated by this biofilm. The biofilm returns between each of the treatments.
# Since the primary odor was thought to come from mildew, a well known material, 20 MULE TEAM BORAX® detergent was used as a detergent. The boron contained in the detergent is a toxic material that controls mold and fungus. […] The commercially available detergent contained a small amount of boron along with various other chemicals necessary for laundry cleaning.
# One ounce of the borax was added to the machine for each load.
# The laundry volume was standardized at a full basket of 2.5 Cu Ft.
# All wash cycles were run with warm water.
# biofilm = test: standardized test procedure for objectionable odors (whiff test, Pass/Fail) in a High Efficiency laundry washing machine; details: one ounce of composition per load, 14 days idle, TROMM WM2688WM HE washer, Tide Liquid HE detergent, 2.5 cu ft cotton laundry
# Source text: The residue is a matrix of soap, detergent, cotton or wool fibers, and any other organic matter that was introduced by the dirty laundry. This provides a wide array of substances that can support biological growth. The exact mixture is an uncontrolled variable but it considered to be bounded by the use of one machine in one location. Experimental control also involves a standardized volume of the laundry load and the exclusive use of cotton items in the laundry washed. The detergent portion of the matrix was standardized by using only TIDE® Liquid HE Detergent.
# A standardized test procedure was developed for a High Efficiency (HE) laundry washing machine. […]
# The test procedure also involved a second growth period after the wash cycle where the damp laundry is allowed to sit idle in the laundry washing machine with the door closed. […] Given the above assumptions, it was reasonable to assume that the performance of the composition would be effectively quantified Personal experience with odor problem:
# Experimentation with idle periods ranging from twenty four hours to three weeks verified that the intensity of the odor problem was a function of the biofilm growth in the machine during the idle period of the washing schedule. […] Therefore, it was determined that the criteria for effectiveness would be focused on the first load of the week. […]
Compound,odor control [1],first load odor control / first load performance (biofilm)
O=C([O-])O.[Na+] [baking soda],did not work well,–
sodium borate pentahydrate [5 mol concentration borax],–,"did increase the control of first load odors, but it was still erratic"

# — patent publication US9157053B1, “Laundry washing machine deodorizer” (priority 2009, dated 2015)
